Assay results taken from US20230220481A1, “Method for Determining Sensitivity to 2,2'-Dithio-bis-Ethane Sulfonate” (Lantern Pharma Inc., priority 2020, published 2023).

Experiments:
[1] = tested on: nuclear factor erythroid 2-related factor 2 (Nrf2); experiment: Induction of nuclear expression of Nrf2 in NGF-differentiated PC12 cells, western blotting; type: cell-based, rat; details: PC12 neuron-like cells
Description: PC12 cells were suspended in DMEM containing 7.5% inactivated fetal bovine serum and 7.5% inactivated horse serum. After seeding onto a type I collagen-coated 100 mm culture dish, these cells were incubated for 7 days in the presence of 100 ng/mL NGF for priming. Culture medium was then replaced with Neurobasal™ medium supplemented with N-2 supplement and 2 mM glutamine containing NGF 30 ng/mL, and cells were incubated again for 3 days for differentiation into neuron-like cells. Next, these cells were treated with 2,2′-dithio-bis-ethane sulfonate 6 mM for 1, 2, 4 and 8 hours, or with a known Nrf2 activator, tert-butylhydroquinone (t-BHQ) 30 μM for 3 hours. Nuclear proteins were then extracted from the cells for detection of nuclear expression of Nrf2 by western blotting.

[2] = tested on: Non-small cell lung cancer cell line HCC827; experiment: Gene expression level changes by whole transcriptome profiling (RNAseq) in HCC827 cells; type: cell-based; details: 2 h treatment, 1 mM and 15 mM, versus untreated control
Description: Another embodiment includes a method for treating or determining the sensitivity of non-small cell cancer to a 2,2′-dithio-bis-ethane sulfonate treatment by assessing the level of NRF2 (SEQ ID NO: 1) expression and at least one gene selected from the group consisting of: NQO1 (SEQ ID NO: 2), PHGDH (SEQ ID NO: 3), HMOX1 (SEQ ID NO: 4), SLC7A11 (SEQ ID NO: 5), SRXN1 (SEQ ID NO: 6), SOX2(SEQ ID NO: 7), GPX2 (SEQ ID NO: 8), GPX3 (SEQ ID NO: 9), and GPX7(SEQ ID NO: 10). For illustration, non-small cell lung cancer cell line HCC827 was treated for 2 h with 2,2′-dithio-bis-ethane sulfonate alone at concentrations of 1 mM and 15 mM and gene expression level changes were measured by whole transcriptome profiling using RNAseq. A control sample with no treatment for the same duration was used as the baseline gene expression level. A greater than 1.5 to 2-fold expression level change can be indicative of 2, 2′-dithio-bis-ethane sulfonate sensitivity.
Non-small cell lung cancer cell line HCC827 was treated for 2 h with disodium 2,2′-dithio-bis-ethane sulfonate alone at concentrations of 1 mM and 15 mM and gene expression level changes were measured by whole transcriptome profiling using RNAseq. A control sample with no treatment for the same duration was used as the baseline gene expression level. […]

SMILES: O=S(=O)([O-])CCSSCCS(=O)(=O)[O-].[Na+].[Na+] [2,2′-dithio-bis-ethane sulfonate, disodium 2,2′-dithio-bis-ethane sulfonate]
- time at which nuclear expression of Nrf2 started after the start of treatment ([1]; 6 mM): 1 h
- time until which apparent expression of Nrf2 persisted after the start of treatment ([1]; 6 mM): 8 h
- induction of nuclear expression of Nrf2 ([1]; 6 mM, 1, 2, 4 and 8 hours): induction of nuclear expression of Nrf2
- gene expression level change of NRF2 biomarker genes (NQO1, PHGDH, HMOX1, SLC7A11, SRXN1, SOX2, GPX2, GPX3, GPX7) [2]: nine genes are upregulated

SMILES: CC(C)(C)c1cc(O)ccc1O [t-BHQ, tert-butylhydroquinone, reference compound]
- induction of nuclear expression of Nrf2 ([1]; 30 μM, 3 hours): induction of nuclear expression of Nrf2
